Test results as given in the supplement of paper PMC10307832.

Experiments:
Experiment in all cases: relative viability (nuclei count vs DMSO), 5 days (fraction); higher = more cells survive
[1] = system: Calu-6
Procedure, shortened: (§1)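 Lung cancer cell lines in 1536-well plates were dosed by pin tool the day after seeding, either with one drug alone or with a fixed anchor-drug dose plus five library-drug doses (not always all listed) in √10 steps. After 5 days, cells were fixed and their nuclei stained in one step (final 0.05% Triton X-100, 1% formaldehyde, 1 ug/ml Hoechst), then counted on 4× images. Relative viability is the nuclei count in treated wells divided by that in vehicle wells. Values are medians of duplicate plates.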

[2] = system: EMC-BAC-2
Procedure, shortened: as §1

[3] = system: ABC-1
Procedure, shortened: as §1

[4] = system: IA-LM
Procedure, shortened: as §1

[5] = system: NCI-H1299
Procedure, shortened: as §1

[6] = system: EBC-1
Procedure, shortened: as §1

[7] = system: NCI-H2228
Procedure, shortened: as §1

[8] = system: NCI-H2009
Procedure, shortened: as §1

[9] = system: NCI-H1703
Procedure, shortened: as §1

[10] = system: A549
Procedure, shortened: as §1

`Nc1cccc2c1CN(C1CCC(=O)NC1=O)C2=O` (stereo unspecified) [Lenalidomide] + CC(C)C[C@H](NC(=O)[C@H](Cc1ccccc1)NC(=O)c1cnccn1)B(O)O [Bortezomib] (partner 0.002 µM) showed a relative viability ([1]; first compound 0.253 µM) of 1.04, a relative viability ([1]; first compound 0.8 µM) of 1.01 and a relative viability ([1]; first compound 2.53 µM) of 0.997. For the same molecule, the relative viability ([1]; first compound 8 µM) was 1.06, the relative viability ([2]; first compound 0.253 µM) was 1.04 and the relative viability ([2]; first compound 0.8 µM) was 0.857. For the same molecule, the relative viability ([2]; first compound 2.53 µM) was 1.15, the relative viability ([2]; first compound 8 µM) was 0.913 and the relative viability ([3]; first compound 0.253 µM) was 0.302. It also gave a relative viability ([3]; first compound 0.8 µM) of 0.297, a relative viability ([3]; first compound 2.53 µM) of 0.278 and a relative viability ([3]; first compound 8 µM) of 0.285. The relative viability ([4]; first compound 0.253 µM) was 0.946, the relative viability ([4]; first compound 0.8 µM) was 0.753 and the relative viability ([4]; first compound 2.53 µM) was 0.884. It also gave a relative viability ([4]; first compound 8 µM) of 0.764, a relative viability ([5]; first compound 0.253 µM) of 1.03 and a relative viability ([5]; first compound 0.8 µM) of 1.01. The relative viability ([5]; first compound 2.53 µM) was 1.06, the relative viability ([5]; first compound 8 µM) was 1.06 and the relative viability ([6]; first compound 0.253 µM) was 0.653. For the same molecule, the relative viability ([6]; first compound 0.8 µM) was 0.589, the relative viability ([6]; first compound 2.53 µM) was 0.684 and the relative viability ([6]; first compound 8 µM) was 0.564. The relative viability ([7]; first compound 0.253 µM) was 1, the relative viability ([7]; first compound 0.8 µM) was 0.986 and the relative viability ([7]; first compound 2.53 µM) was 1.12. For the same molecule, the relative viability ([7]; first compound 8 µM) was 0.942, the relative viability ([8]; first compound 0.253 µM) was 0.929 and the relative viability ([8]; first compound 0.8 µM) was 1.02. The relative viability ([8]; first compound 2.53 µM) was 1.22, the relative viability ([8]; first compound 8 µM) was 1.01 and the relative viability ([9]; first compound 0.253 µM) was 0.231. The relative viability ([9]; first compound 0.8 µM) was 0.399, the relative viability ([9]; first compound 2.53 µM) was 0.328 and the relative viability ([9]; first compound 8 µM) was 0.47.

For `CCNC(=O)c1noc(-c2cc(C(C)C)c(O)cc2O)c1-c1ccc(CN2CCOCC2)cc1` [Luminespib] + CC1(C)CCC(c2ccc(Cl)cc2)=C(CN2CCN(c3ccc(C(=O)NS(=O)(=O)c4ccc(N[C@H](CCN5CCOCC5)CSc5ccccc5)c(S(=O)(=O)C(F)(F)F)c4)cc3)CC2)C1 [Navitoclax] (partner 0.5 µM), the relative viability ([1]; first compound 0.002 µM) was 0.836, the relative viability ([1]; first compound 0.006325 µM) was 0.772 and the relative viability ([1]; first compound 0.02 µM) was 1.08. It also gave a relative viability ([1]; first compound 0.06325 µM) of 0.116, a relative viability ([1]; first compound 0.2 µM) of 0.107 and a relative viability ([2]; first compound 0.002 µM) of 1.15. It also gave a relative viability ([2]; first compound 0.006325 µM) of 1.09, a relative viability ([2]; first compound 0.02 µM) of 1.12 and a relative viability ([2]; first compound 0.06325 µM) of 1.16. For the same molecule, the relative viability ([2]; first compound 0.2 µM) was 1.13, the relative viability ([4]; first compound 0.002 µM) was 0.752 and the relative viability ([4]; first compound 0.006325 µM) was 0.792. It also gave a relative viability ([4]; first compound 0.02 µM) of 0.549, a relative viability ([4]; first compound 0.06325 µM) of 0.061 and a relative viability ([4]; first compound 0.2 µM) of 0.058. It also gave a relative viability ([10]; first compound 0.002 µM) of 1.22, a relative viability ([10]; first compound 0.006325 µM) of 1.15 and a relative viability ([10]; first compound 0.02 µM) of 1.11. It also gave a relative viability ([10]; first compound 0.06325 µM) of 0.0452, a relative viability ([10]; first compound 0.2 µM) of 0.0433 and a relative viability ([5]; first compound 0.002 µM) of 1.03. The relative viability ([5]; first compound 0.006325 µM) was 1.01, the relative viability ([5]; first compound 0.02 µM) was 1.07 and the relative viability ([5]; first compound 0.06325 µM) was 0.975. The relative viability ([5]; first compound 0.2 µM) was 0.295, the relative viability ([6]; first compound 0.002 µM) was 0.489 and the relative viability ([6]; first compound 0.006325 µM) was 0.488. For the same molecule, the relative viability ([6]; first compound 0.02 µM) was 0.241, the relative viability ([6]; first compound 0.06325 µM) was 0.142 and the relative viability ([6]; first compound 0.2 µM) was 0.133. It also gave a relative viability ([7]; first compound 0.002 µM) of 0.836, a relative viability ([7]; first compound 0.006325 µM) of 0.637 and a relative viability ([7]; first compound 0.02 µM) of 0.614. For the same molecule, the relative viability ([7]; first compound 0.06325 µM) was 0.11, the relative viability ([7]; first compound 0.2 µM) was 0.144 and the relative viability ([8]; first compound 0.002 µM) was 1.17. It also gave a relative viability ([8]; first compound 0.006325 µM) of 1.08, a relative viability ([8]; first compound 0.02 µM) of 1.21 and a relative viability ([8]; first compound 0.06325 µM) of 0.72. The relative viability ([8]; first compound 0.2 µM) was 0.0895, the relative viability ([9]; first compound 0.002 µM) was 1.34 and the relative viability ([9]; first compound 0.006325 µM) was 0.925. For the same molecule, the relative viability ([9]; first compound 0.02 µM) was 0.371, the relative viability ([9]; first compound 0.06325 µM) was 0.147 and the relative viability ([9]; first compound 0.2 µM) was 0.138.

For `CCNC(=O)c1noc(-c2cc(C(C)C)c(O)cc2O)c1-c1ccc(CN2CCOCC2)cc1` [Luminespib] + CC(C)C[C@H](NC(=O)[C@H](Cc1ccccc1)NC(=O)c1cnccn1)B(O)O [Bortezomib] (partner 0.002 µM), the relative viability ([1]; first compound 0.002 µM) was 1.06, the relative viability ([1]; first compound 0.006325 µM) was 0.883 and the relative viability ([1]; first compound 0.02 µM) was 1.21. It also gave a relative viability ([1]; first compound 0.06325 µM) of 0.141, a relative viability ([1]; first compound 0.2 µM) of 0.159 and a relative viability ([2]; first compound 0.002 µM) of 1.1. The relative viability ([2]; first compound 0.006325 µM) was 1.02, the relative viability ([2]; first compound 0.02 µM) was 0.844 and the relative viability ([2]; first compound 0.06325 µM) was 1.1. The relative viability ([2]; first compound 0.2 µM) was 0.913, the relative viability ([3]; first compound 0.002 µM) was 0.258 and the relative viability ([3]; first compound 0.006325 µM) was 0.315. It also gave a relative viability ([3]; first compound 0.02 µM) of 0.238, a relative viability ([3]; first compound 0.06325 µM) of 0.267 and a relative viability ([3]; first compound 0.2 µM) of 0.255. It also gave a relative viability ([4]; first compound 0.002 µM) of 0.819, a relative viability ([4]; first compound 0.006325 µM) of 0.951 and a relative viability ([4]; first compound 0.02 µM) of 0.648. The relative viability ([4]; first compound 0.06325 µM) was 0.067, the relative viability ([4]; first compound 0.2 µM) was 0.0656 and the relative viability ([5]; first compound 0.002 µM) was 1.01. For the same molecule, the relative viability ([5]; first compound 0.006325 µM) was 0.999, the relative viability ([5]; first compound 0.02 µM) was 1.04 and the relative viability ([5]; first compound 0.06325 µM) was 0.946. For the same molecule, the relative viability ([5]; first compound 0.2 µM) was 0.248, the relative viability ([6]; first compound 0.002 µM) was 0.583 and the relative viability ([6]; first compound 0.006325 µM) was 0.541. The relative viability ([6]; first compound 0.02 µM) was 0.318, the relative viability ([6]; first compound 0.06325 µM) was 0.118 and the relative viability ([6]; first compound 0.2 µM) was 0.169. For the same molecule, the relative viability ([7]; first compound 0.002 µM) was 0.985, the relative viability ([7]; first compound 0.006325 µM) was 0.952 and the relative viability ([7]; first compound 0.02 µM) was 0.166. The relative viability ([7]; first compound 0.06325 µM) was 0.196, the relative viability ([7]; first compound 0.2 µM) was 0.184 and the relative viability ([8]; first compound 0.002 µM) was 1.16. The relative viability ([8]; first compound 0.006325 µM) was 0.841, the relative viability ([8]; first compound 0.02 µM) was 0.956 and the relative viability ([8]; first compound 0.06325 µM) was 0.0583. For the same molecule, the relative viability ([8]; first compound 0.2 µM) was 0.0609, the relative viability ([9]; first compound 0.002 µM) was 0.494 and the relative viability ([9]; first compound 0.006325 µM) was 0.415. It also gave a relative viability ([9]; first compound 0.02 µM) of 0.224, a relative viability ([9]; first compound 0.06325 µM) of 0.13 and a relative viability ([9]; first compound 0.2 µM) of 0.14.
